Literature values in patent publication US7198928B2, “Human COX-1 alternatively spliced variants and methods of using same” (Allergan, Inc., priority 2003, dated 2007).

Columns and labels:
COX-1 = settings: human iris vs human blood
[1] = humans treated with rofecoxib, in comparison with patients receiving naproxen

SMILES	potency of COX-1 inhibition in human iris relative to human blood (COX-1)	thrombotic cardiovascular events [1]
C[C@H](C(=O)O)c1ccc(-c2ccccc2)c(F)c1 [S(+)flurbiprofen]	70 fold	
CS(=O)(=O)c1ccc(C2=C(c3ccccc3)C(=O)OC2)cc1 [rofecoxib]		significant increase in thrombotic cardiovascular events
